We go through three molecules from ChEMBL document CHEMBL1142360 (J Med Chem, 2008).

Data set [1] concerns PC-3. Nature of the data set: Antiproliferative activity against human PC3 cells. It counts as functional, cell-based.
In data set [2] the test system is PC-3. Nature of the data set: Antiproliferative activity against human PC3 cells at 10 uM after 5 days. The format is functional.
Data set [3] is described as follows: Partition coefficient, log P of the compound. The conditions noted are these: octanol/water. It counts as physicochemical.

SMILES strings stand for the structures.

The molecule `COc1ccc(C2(c3ccc(C#N)c(C(F)(F)F)c3)NC(=O)N(c3ccc(C#N)c(C(F)(F)F)c3)C2=O)cc1` (configuration not stated) came in with a concentration for half-maximal inhibition (IC50) in data set [1] of 5.6 µM. In addition, the Activity in data set [2] worked out at 76%. For the same molecule, the lipophilicity (logP) in data set [3] amounted to 5.7.
In data set [2], `C[C@](O)(CS(=O)(=O)c1ccc(F)cc1)C(=O)Nc1ccc(C#N)c(C(F)(F)F)c1` [(R)-BICALUTAMIDE] registered an Activity of 15%. The logP in data set [3] amounted to 3.4.
As for `CC1(C)NC(=O)N(c2ccc([N+](=O)[O-])c(C(F)(F)F)c2)C1=O` [NILUTAMIDE], in data set [2], the Activity is listed as 11%. In addition, the logP in data set [3] was 3.2.

Usually IC50 stands for the concentration needed to halve the response being measured. Low values mean greater potency in that assay, high ones weaker potency in that assay. As a reminder, the logP is a log measure of how a compound divides between an organic and an aqueous phase. Read a high logP as higher lipophilicity.
